Measurements from paper PMC7762046, “Fragments of a Wheat Hevein-Like Antimicrobial Peptide Augment the Inhibitory Effect of a Triazole Fungicide on Spore Germination of Fusarium oxysporum and Alternaria solani” (Antibiotics, 2020).
Like-named read-outs stand apart in the source and are kept apart here. Marks after values point to notes of the source that are not given here. Residues, ends and D or L forms follow the SMILES beside them.

How the values were obtained:
F. oxysporum [1] = type: cell-based, Fusarium oxysporum f. sp. lycopersici (strain F37)
Experimental: In the first series of these experiments, we tested the inhibitory effect of the fragments against F. oxysporum and compared the inhibitory activity of the fragments to each other and to the entire WAMP-2 peptide. Microconidia of the pathogen were treated to each of the WAMP-2 fragments taken at three or four concentrations ranging between 50 and 200 (WAMP-N, WAMP-G2), 100 and 400 (WAMP-G1), or 50 and 400 (WAMP-C) µg/mL. […] After the treatments, the rate of germinated conidia was determined, expressed as the percent relative to the total number of conidia counted (500 ones per treatment). Effective doses (EDs) providing a 50% or 99.9% inhibition were calculated by probit analysis. The performed analysis confirmed our previous data on the antifungal activity of WAMP-2-derived fragments towards the Fusarium wilt agent.
(§1) The inhibitory effect of synthesized peptides on conidial germination of fungi was assessed by a microtiterplate assay. Fungal conidia were added to WAMP-2-derived peptides, already dissolved in SDW, to prepare suspensions having final concentrations of 10^5 microconidia/mL (F. oxysporum) or 3 × 10^4 macroconidia/mL (A. solani). Resulting suspensions were incubated at 20–22 °C overnight in wells of 96-well microtiter plates. Control suspensions (with the same final concentrations of conidia) were prepared using SDW. Thereafter, germinated and non-germinated conidia (500 ones of each pathogen per treatment) were counted in treated and control suspensions using an inverted microscope. The average number of conidia germinated in these suspensions was calculated and expressed as the percent of the total number of the counted conidia. In addition, percent germination inhibition in the treated conidia, relative to germination in controls, was determined and indicated as levels of the inhibitory effect in Table 2 and Table 3. Oligopeptides were tested at final concentrations of 50, 100, 200, and 400 µg/mL, which were selected based on previous results of testing of the same WAMP-2-derived peptides for the ability to inhibit spore germination in other Fusarium and Alternaria species.
Inhibitory concentrations of the peptides providing in vitro 50% or 99% in vitro suppression of conidial germination (ED50, and ED99, respectively) were determined by the probit analysis with the involvement of a linear regression. In a regression equation (Y = ax + b) used in probit analyses, Y is the probit value for 50% or 99% inhibition levels, x values are decimal logarithms of the correspondent concentrations, and a and b represent regression coefficients. The calculated ED99 values from the probit analysis were considered as the minimum fungicidal concentration (MFC), i.e., the lowest concentration of a peptide, used alone, resulting in […] inhibition of conidial germination.
For each of the two pathogens, microtiter plate tests with synthesized peptides included three independent experimental series. Each experiment included 5 replications of each treatment, 100 conidia per each one (n = 500). […] Mean values, standard deviations, standard errors, as well as significant differences from controls and between treatments (t-test for independent variables, p ≤ 0.05), were calculated using STATISTICA v. […] Approximation of confidence values (R^2) and regression coefficients were determined using statistical functions of Microsoft Excel 2013 (Microsoft Corp. Redmond, WA, USA).

F. oxysporum [2] = type: cell-based, Fusarium oxysporum f. sp. lycopersici (strain F37); conditions: for Expected additive inhibitory effect (Ee), peptide combined with Folicur: calculated by Limpel's formula
Experimental: (§2) The assays were performed in 96-well microtiter plates, using a “checkerboard” design. Fungal conidia were treated with either Folicur® or peptide fragments, each alone, and, in parallel, were subjected to combined treatments wherein the fungicide and one of the WAMP-2-derived peptides were mixed in the same concentration as when used alone. […] However, enhancement potency varied depending on the pathogen, the WAMP fragment, and co-applied concentrations of the WAMP-2 fragments and Folicur®.
as §1
(§3) In vitro tests involving pathogen sensitization to Folicur® EC 250 were designed under the principle of a microdilution checkerboard assay. Fungal conidia were incubated in 96-well plates in mixtures of the fungicide and each of the peptides at the above-mentioned concentrations in parallel with conidia’ incubation in the solutions of Folicur® or the oligopeptides, alone, used at the same final concentrations as in the mixtures.
(§4) To reveal oligopeptide/fungicide synergy, the Limpel criterion Ee < Er was determined by Formula (1):Ee,% = (X + Y) − XY/100 < Er,% (at p ≤ 0.05),(1) where Ee is the level of an expected additive effect from application of both test compounds; X and Y represent inhibition of the spore germination in % by each antifungal agent used alone; and Er is the percentage of actual inhibition obtained experimentally by co-application of X and Y.
(§5) For each of the two pathogens, microtiter plate tests with synthesized peptides included three independent experimental series. Each experiment included 5 replications of each treatment, 100 conidia per each one (n = 500). Experiments evaluating the sensitizing activity of the tested peptides on leaf disks and detached tomato seedlings were additionally repeated twice. Mean values, standard deviations, standard errors, as well as significant differences from controls and between treatments (t-test for independent variables, p ≤ 0.05), were calculated using STATISTICA v. 6.1 software (StatSoft Inc., Tulsa, OK, USA). Approximation of confidence values (R^2) and regression coefficients were determined using statistical functions of Microsoft Excel 2013 (Microsoft Corp. Redmond, WA, USA).

A. solani [3] = type: cell-based, Alternaria solani (strain MO-VNIIF-9-2018)
Experimental: as §2, §1, §3, §4, §5

A. solani [4] = type: cell-based, Alternaria solani (strain MO-VNIIF-9-2018); remark: listed apart in the source
Experimental: as §1, with “Oligopeptides were tested at final concentrations of 50, 100, 200, and 400 µg/mL, which were selected based on previous results of testing of the same WAMP-2-derived peptides for the ability to inhibit spore germination in other Fusarium and Alternaria species.” left out
For each of the two pathogens, microtiter plate tests with synthesized peptides included three independent experimental series. […] Mean values, standard deviations, standard errors, as well as significant differences from controls and between treatments (t-test for independent variables, p ≤ 0.05), were calculated using STATISTICA v. […]

Compound: CCGKYGFCGSGDAYC [WAMP-G2, chemically synthesized fragment (residues 18–32) from the central region of WAMP-2]
- ED50 (F. oxysporum [1]; 50% inhibition of microconidia germination, probit analysis, SDW, overnight 20–22 °C): 0.35 ^a µg/mL
- ED99 (MFC) (F. oxysporum [1]; lowest concentration giving 99.9% inhibition of conidial germination, probit analysis): 35.1 ^b µg/mL
- Expected additive inhibitory effect (Ee), peptide combined with Folicur (F. oxysporum [2]; peptide 50 µg/mL + Folicur 0.005 µg/mL): 14.5%
- Observed inhibitory effect (Er), peptide combined with Folicur (F. oxysporum [2]; peptide 50 µg/mL + Folicur 0.005 µg/mL, mean of 3 experiments): 27.8 ^b %
- Expected additive inhibitory effect (Ee), peptide combined with Folicur (F. oxysporum [2]; peptide 50 µg/mL + Folicur 0.01 µg/mL): 24.8%
- Observed inhibitory effect (Er), peptide combined with Folicur (F. oxysporum [2]; peptide 50 µg/mL + Folicur 0.01 µg/mL, mean of 3 experiments): 36.4 ^b %
- Expected additive inhibitory effect (Ee), peptide combined with Folicur (F. oxysporum [2]; peptide 50 µg/mL + Folicur 0.05 µg/mL): 33.0%
- Observed inhibitory effect (Er), peptide combined with Folicur (F. oxysporum [2]; peptide 50 µg/mL + Folicur 0.05 µg/mL, mean of 3 experiments): 47.4 ^b %
- Inhibitory effect on conidial germination (Er), peptide alone (F. oxysporum [2]; peptide 50 µg/mL, Folicur 0.0 µg/mL, SDW, overnight 20–22 °C, mean of 3 experiments): 7.0 ^a %
- Expected additive inhibitory effect (Ee), peptide combined with Folicur (F. oxysporum [2]; peptide 100 µg/mL + Folicur 0.005 µg/mL): 28.8%
- Observed inhibitory effect (Er), peptide combined with Folicur (F. oxysporum [2]; peptide 100 µg/mL + Folicur 0.005 µg/mL, mean of 3 experiments): 49.3 ^c %
- Expected additive inhibitory effect (Ee), peptide combined with Folicur (F. oxysporum [2]; peptide 100 µg/mL + Folicur 0.01 µg/mL): 37.7%
- Observed inhibitory effect (Er), peptide combined with Folicur (F. oxysporum [2]; peptide 100 µg/mL + Folicur 0.01 µg/mL, mean of 3 experiments): 53.1 ^c %
- Expected additive inhibitory effect (Ee), peptide combined with Folicur (F. oxysporum [2]; peptide 100 µg/mL + Folicur 0.05 µg/mL): 44.1%
- Observed inhibitory effect (Er), peptide combined with Folicur (F. oxysporum [2]; peptide 100 µg/mL + Folicur 0.05 µg/mL, mean of 3 experiments): 56.8 ^c %
- Inhibitory effect on conidial germination (Er), peptide alone (F. oxysporum [2]; peptide 100 µg/mL, Folicur 0.0 µg/mL, SDW, overnight 20–22 °C, mean of 3 experiments): 22.4 ^b %
- Expected additive inhibitory effect (Ee), peptide combined with Folicur (F. oxysporum [2]; peptide 200 µg/mL + Folicur 0.005 µg/mL): 41.8%
- Observed inhibitory effect (Er), peptide combined with Folicur (F. oxysporum [2]; peptide 200 µg/mL + Folicur 0.005 µg/mL, mean of 3 experiments): 62.6 ^d %
- Expected additive inhibitory effect (Ee), peptide combined with Folicur (F. oxysporum [2]; peptide 200 µg/mL + Folicur 0.01 µg/mL): 47.1%
- Observed inhibitory effect (Er), peptide combined with Folicur (F. oxysporum [2]; peptide 200 µg/mL + Folicur 0.01 µg/mL, mean of 3 experiments): 74.8 ^d %
- Expected additive inhibitory effect (Ee), peptide combined with Folicur (F. oxysporum [2]; peptide 200 µg/mL + Folicur 0.05 µg/mL): 52.7%
- Observed inhibitory effect (Er), peptide combined with Folicur (F. oxysporum [2]; peptide 200 µg/mL + Folicur 0.05 µg/mL, mean of 3 experiments): 87.1 ^d %
- Inhibitory effect on conidial germination (Er), peptide alone (F. oxysporum [2]; peptide 200 µg/mL, Folicur 0.0 µg/mL, SDW, overnight 20–22 °C, mean of 3 experiments): 34.1 ^c %

Compound: N=C(N)NCCC[C@H](NC(=O)[C@H](CS)NC(=O)CNC(=O)[C@H](CCCNC(=N)N)NC(=O)[C@H](CS)NC(=O)[C@H](CCC(N)=O)NC(=O)[C@H](CO)NC(=O)[C@H](CCC(N)=O)NC(=O)[C@H](CS)NC(=O)[C@H](CO)NC(=O)CNC(=O)[C@H](CCCCN)NC(=O)CN)C(=O)O [WAMP-C] (H-GKGSCQSQCRGCR-OH)
- ED99 (MFC) (F. oxysporum [1]): 106.9 ^d µg/mL
- Inhibitory effect on conidial germination (Er), peptide alone (A. solani [3]; 100 µg/mL): 19.0 ^a %
- Inhibitory effect on conidial germination (Er), peptide alone (A. solani [3]; 200 µg/mL): 31.0 ^b %
- Inhibitory effect on conidial germination (Er), peptide alone (A. solani [3]; 400 µg/mL): 48.2 ^c %
- ED99 (MFC) (A. solani [4]): 53.4 ^g µg/mL
- Inhibitory effect on conidial germination (Er), peptide alone (F. oxysporum [2]; 50 µg/mL): 4.3 ^a %
- Inhibitory effect on conidial germination (Er), peptide alone (F. oxysporum [2]; 100 µg/mL): 6.2 ^b %
- Inhibitory effect on conidial germination (Er), peptide alone (F. oxysporum [2]; 200 µg/mL): 8.6 ^c %
- Inhibitory effect on conidial germination (Er), peptide alone (F. oxysporum [2]; 400 µg/mL): 11.6 ^c %

Compound: CC(C)C[C@H](N)C(=O)N[C@@H](CS)C(=O)N[C@@H](CS)C(=O)NCC(=O)N[C@@H](CCCCN)C(=O)N[C@@H](Cc1ccc(O)cc1)C(=O)NCC(=O)N[C@@H](Cc1ccccc1)C(=O)N[C@@H](CS)C(=O)NCC(=O)N[C@@H](CO)C(=O)NCC(=O)O [WAMP-G1] (H-LCCGKYGFCGSG-OH)
- ED99 (MFC) (F. oxysporum [1]): >10,000 µg/mL
- Inhibitory effect on conidial germination (Er), peptide alone (A. solani [3]; 100 µg/mL): 2.0 ^a %
- Inhibitory effect on conidial germination (Er), peptide alone (A. solani [3]; 200 µg/mL): 9.8 ^b %
- Inhibitory effect on conidial germination (Er), peptide alone (A. solani [3]; 400 µg/mL): 21.9 ^c %
- ED99 (MFC) (A. solani [4]): 3980.0 ^f µg/mL
- Inhibitory effect on conidial germination (Er), peptide alone (F. oxysporum [2]; 100 µg/mL): 1.1 ^a %
- Inhibitory effect on conidial germination (Er), peptide alone (F. oxysporum [2]; 200 µg/mL): 8.0 ^b %
- Inhibitory effect on conidial germination (Er), peptide alone (F. oxysporum [2]; 400 µg/mL): 17.5 ^c %

Compound: C[C@H](N)C(=O)N[C@@H](CCC(N)=O)C(=O)N[C@@H](CCCNC(=N)N)C(=O)N[C@@H](CS)C(=O)NCC(=O)N[C@@H](CC(=O)O)C(=O)N[C@@H](CCC(N)=O)C(=O)N[C@@H](C)C(=O)N[C@@H](CCCNC(=N)N)C(=O)NCC(=O)N[C@@H](C)C(=O)N[C@@H](CCCCN)C(=O)N[C@@H](CS)C(=O)O [WAMP-N] (H-AQRCGDQARGAKC-OH)
- ED99 (MFC) (F. oxysporum [1]): 22.7 µg/mL
- Inhibitory effect on conidial germination (Er), peptide alone (F. oxysporum [2]; 50 µg/mL): 12.3 ^a %
- Inhibitory effect on conidial germination (Er), peptide alone (F. oxysporum [2]; 100 µg/mL): 23.1 ^b %
- Inhibitory effect on conidial germination (Er), peptide alone (F. oxysporum [2]; 200 µg/mL): 42.7 ^c %
